Measurements published in PubChem BioAssay AID1963962 (Molecular Pharmacology Branch, DTP, NCI, 2024).
Several values for one entry are separate records, joined by “and”; a condition that tells them apart may be missing. Identical values can stand only once.

Test system: 967376-340-R-J2-PDC multicell spheroid viability
Assay: Anticancer human tumor 967376-340-R-J2-PDC patient-derived colon adenocarcinoma cell line growth inhibition [PI3K]
Settings: for viability, T/C: stronger effect = lower value
Outline: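 Tumor cells grown as multi-cell spheroids with HUVEC endothelial cells and MSC fibroblast-like stroma were treated with targeted agents combined with inavolisib, alpelisib, duvelisib or copanlisib. Doses fell in half-log steps from near clinical Cmax, else from 10 microM. Viability was measured.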
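Further: spheroids exposed to agents for 7 days before read-out.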
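Wherever viability, T/C is given: luminescence used as surrogate of cell viability.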

Structure (SMILES): Cc1nc(NC(=O)N2CCCC2C(N)=O)sc1-c1ccnc(C(C)(C)C(F)(F)F)c1 (configuration not stated)
- viability, T/C (compound 0.1 µM): 85.3% [middle of 8 runs]
- viability, T/C (compound 0.316 µM): 80.7% [middle of 8 runs]
- viability, T/C (compound 1 µM): 73.6% [middle of 8 runs]
- viability, T/C (compound 3.16 µM): 64.3% [middle of 8 runs]
- viability, T/C (compound 10 µM): 45.7% [middle of 8 runs]

Structure (SMILES): Cn1nccc1Nc1nccc(-c2ccn(C(CO)c3ccc(Cl)c(F)c3)c(=O)c2)n1 (configuration not stated)
- viability, T/C (compound 0.0316 µM): 100% [middle of 4 runs]
- viability, T/C (compound 0.1 µM): 94.5% [middle of 4 runs]
- viability, T/C (compound 0.316 µM): 101% (2×) and 95.3% and 76.4%
- viability, T/C (compound 10 µM): 99.5% [middle of 4 runs]
- IC50 (curve of compound): > 10 µM

Structure (SMILES): CC(Cn1ccc(-c2ccc(C#N)c(Cl)c2)n1)NC(=O)c1cc(C(C)O)[nH]n1 (configuration not stated) + CC(Nc1ccc2c(c1)OCCn1cc(N3C(=O)OCC3C(F)F)nc1-2)C(N)=O
- IC50 (curve of first compound, second compound 0.00316 µM): > 10 µM
- IC50 (curve of first compound, second compound 0.01 µM): > 10 µM
- IC50 (curve of first compound, second compound 0.0316 µM): > 10 µM
- IC50 (curve of first compound, second compound 0.1 µM): > 10 µM
- IC50 (curve of first compound, second compound 0.316 µM): > 10 µM
- IC50 (curve of first compound, second compound 1 µM): > 10 µM
- viability, T/C (second compound 0.00316 µM, first compound 0.0316 µM): 109%
- viability, T/C (second compound 0.00316 µM, first compound 0.1 µM): 112%
- viability, T/C (second compound 0.00316 µM, first compound 0.316 µM): 126%
- viability, T/C (second compound 0.00316 µM, first compound 1 µM): 93.5%
- viability, T/C (second compound 0.00316 µM, first compound 3.16 µM): 125%
- viability, T/C (second compound 0.00316 µM, first compound 10 µM): 105%
- viability, T/C (second compound 0.01 µM, first compound 0.0316 µM): 115%
- viability, T/C (second compound 0.01 µM, first compound 0.1 µM): 78.3%
- viability, T/C (second compound 0.01 µM, first compound 0.316 µM): 126%
- viability, T/C (second compound 0.01 µM, first compound 1 µM): 101%
- viability, T/C (second compound 0.01 µM, first compound 3.16 µM): 102%
- viability, T/C (second compound 0.01 µM, first compound 10 µM): 117%
- viability, T/C (second compound 0.0316 µM, first compound 0.0316 µM): 82.6%
- viability, T/C (second compound 0.0316 µM, first compound 0.1 µM): 104%
- viability, T/C (second compound 0.0316 µM, first compound 0.316 µM): 101%
- viability, T/C (second compound 0.0316 µM, first compound 1 µM): 97.1%
- viability, T/C (second compound 0.0316 µM, first compound 3.16 µM): 93.7%
- viability, T/C (second compound 0.0316 µM, first compound 10 µM): 84.8%
- viability, T/C (second compound 0.1 µM, first compound 0.0316 µM): 84.5%
- viability, T/C (second compound 0.1 µM, first compound 0.1 µM): 74.1%
- viability, T/C (second compound 0.1 µM, first compound 0.316 µM): 75%
- viability, T/C (second compound 0.1 µM, first compound 1 µM): 83.9%
- viability, T/C (second compound 0.1 µM, first compound 3.16 µM): 85.2%
- viability, T/C (second compound 0.1 µM, first compound 10 µM): 67.4%
- viability, T/C (second compound 0.316 µM, first compound 0.0316 µM): 75.7%
- viability, T/C (second compound 0.316 µM, first compound 0.1 µM): 72.3%
- viability, T/C (second compound 0.316 µM, first compound 0.316 µM): 76.4%
- viability, T/C (second compound 0.316 µM, first compound 1 µM): 62.4%
- viability, T/C (second compound 0.316 µM, first compound 3.16 µM): 69.4%
- viability, T/C (second compound 0.316 µM, first compound 10 µM): 78.2%
- viability, T/C (second compound 1 µM, first compound 0.0316 µM): 59.8%
- viability, T/C (second compound 1 µM, first compound 0.1 µM): 54%
- viability, T/C (second compound 1 µM, first compound 0.316 µM): 66.7%
- viability, T/C (second compound 1 µM, first compound 1 µM): 51%
- viability, T/C (second compound 1 µM, first compound 3.16 µM): 61.2%
- viability, T/C (second compound 1 µM, first compound 10 µM): 60.2%
